In patent US20230113037A1 (Bayer Aktiengesellschaft, priority 2019, published 2023):
Where two headings read alike, the source gives them in different places.

Assays:
AHR [1] = target: T1, AHR (Mus musculus, UniProt P30561); test: In vitro assay 3: antagonism in mouse cell line (AHR transactivation, firefly luciferase reporter, kynurenic acid prestimulated); type: cell-based
T1 sequence (P30561 1-848 P471L/N533S/M589L): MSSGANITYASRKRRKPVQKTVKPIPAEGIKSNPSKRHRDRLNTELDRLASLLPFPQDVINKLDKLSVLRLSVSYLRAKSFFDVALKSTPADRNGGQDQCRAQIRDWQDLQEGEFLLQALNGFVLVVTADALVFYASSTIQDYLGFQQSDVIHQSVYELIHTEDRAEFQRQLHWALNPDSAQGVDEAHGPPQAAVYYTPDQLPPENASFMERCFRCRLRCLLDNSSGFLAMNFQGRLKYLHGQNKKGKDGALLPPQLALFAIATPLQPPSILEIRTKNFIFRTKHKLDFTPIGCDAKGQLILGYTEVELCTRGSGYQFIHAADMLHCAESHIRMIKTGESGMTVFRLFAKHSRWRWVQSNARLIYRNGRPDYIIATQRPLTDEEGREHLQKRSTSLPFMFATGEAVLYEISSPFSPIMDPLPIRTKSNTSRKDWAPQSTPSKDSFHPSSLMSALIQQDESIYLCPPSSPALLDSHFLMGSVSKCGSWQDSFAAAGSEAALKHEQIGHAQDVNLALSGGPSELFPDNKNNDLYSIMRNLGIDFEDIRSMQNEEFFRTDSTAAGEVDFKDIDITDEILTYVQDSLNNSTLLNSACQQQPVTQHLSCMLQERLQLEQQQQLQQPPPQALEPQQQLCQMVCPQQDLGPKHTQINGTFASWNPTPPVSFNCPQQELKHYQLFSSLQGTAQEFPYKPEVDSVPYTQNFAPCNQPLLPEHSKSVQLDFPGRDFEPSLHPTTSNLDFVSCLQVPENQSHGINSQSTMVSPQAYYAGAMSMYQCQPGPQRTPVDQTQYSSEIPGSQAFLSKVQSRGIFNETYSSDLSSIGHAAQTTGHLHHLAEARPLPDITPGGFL
Outline: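 Mouse cells stably carrying a DRE-driven, AHR-inducible firefly luciferase reporter were prestimulated with the endogenous agonist kynurenic acid before compound addition. Luciferase activity was measured by luminescence and normalized to positive and negative controls, with cells lacking kynurenic acid serving as full-inhibition control. Repeat tests are reported as mean or median.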

AHR [2] = target: T2, AHR (Homo sapiens, UniProt P35869); test: In vitro assay 1: antagonism in human cell line (AHR transactivation, firefly luciferase reporter, kynurenic acid prestimulated); type: cell-based; details: AHR Antagonism Human IC50 [M], firefly luciferase reporter
T2 construct: U87 MG glioblastoma cells (ATCC #HTB-14) endogenously expressing AHR; endogenous in cells; host or cells: U87 MG glioblastoma cells (ATCC #HTB-14)
T2 sequence (P35869 11-848): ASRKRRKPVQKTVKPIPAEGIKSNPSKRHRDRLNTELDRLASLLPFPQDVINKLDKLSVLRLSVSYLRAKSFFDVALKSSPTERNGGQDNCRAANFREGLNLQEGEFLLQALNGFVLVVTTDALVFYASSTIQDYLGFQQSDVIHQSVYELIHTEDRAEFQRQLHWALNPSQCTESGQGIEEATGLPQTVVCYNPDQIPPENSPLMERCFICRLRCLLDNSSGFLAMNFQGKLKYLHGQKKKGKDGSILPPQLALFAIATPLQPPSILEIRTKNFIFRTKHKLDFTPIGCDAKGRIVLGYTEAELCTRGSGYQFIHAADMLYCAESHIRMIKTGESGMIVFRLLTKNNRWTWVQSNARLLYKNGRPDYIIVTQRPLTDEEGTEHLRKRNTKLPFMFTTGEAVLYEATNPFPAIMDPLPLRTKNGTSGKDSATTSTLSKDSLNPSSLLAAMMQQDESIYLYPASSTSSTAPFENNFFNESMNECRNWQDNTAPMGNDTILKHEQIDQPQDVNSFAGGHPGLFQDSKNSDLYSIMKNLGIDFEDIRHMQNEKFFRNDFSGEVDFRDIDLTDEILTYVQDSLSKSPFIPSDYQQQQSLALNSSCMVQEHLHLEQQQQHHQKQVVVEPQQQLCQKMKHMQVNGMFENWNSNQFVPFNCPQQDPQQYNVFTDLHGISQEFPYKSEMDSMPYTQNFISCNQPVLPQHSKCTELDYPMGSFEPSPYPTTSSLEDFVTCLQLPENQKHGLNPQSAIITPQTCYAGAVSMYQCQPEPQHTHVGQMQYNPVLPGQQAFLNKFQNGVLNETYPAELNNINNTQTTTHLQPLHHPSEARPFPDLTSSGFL
Outline: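 U87 MG + DRE-firefly/constitutive-Renilla stable reporters; kynurenic acid prestim; dual-luc read; Renilla = tox; normalized vs pos/neg controls (pos: 150 μM KYNA + 5 μM staurosporine).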

[3] = Hepa 1c1c7 cells, 200 μM kynurenic acid, 20 hours, firefly luciferase reporter, read-out: AHR Antagonism Mouse IC50

Row | Structure (SMILES) | IC50 (AHR [1]; read-out: AHR Antagonism Mouse IC50, Hepa 1c1c7 cells, 200 μM kynurenic acid, 20 hours, firefly luciferase reporter) | IC50 (AHR [2]) | IC50 (AHR [1]; [3])
1 | COc1ccc(-c2nc3c4cccc(Br)c4nc(N[C@H](C)C(=O)NCCN(C)C(=O)OC(C)(C)C)n3n2)cc1 [Example 887, tert-butyl [2-({N-[7-bromo-2-(4-methoxyphenyl)[1,2,4]triazolo[1,5-c]quinazolin-5-yl]-D-alanyl}amino)ethyl]methylcarbamate] | 10.1 nM | 1.37e-09 M | –
2 | C[C@@H](Nc1nc2c(Br)cccc2c2nc(-c3cnn(C)c3)nn12)C(=O)NCCN(C)C(=O)OC(C)(C)C [Example 888, tert-butyl [2-({N-[7-bromo-2-(1-methyl-1H-pyrazol-4-yl)[1,2,4]triazolo[1,5-c]quinazolin-5-yl]-D-alanyl}amino)ethyl]methylcarbamate] | – | 1.73e-08 M | 24.8 nM
3 | COc1ccc(-c2nc3c4ccccc4nc(N[C@H](C)C(=O)NCCN(C)C(=O)OC(C)(C)C)n3n2)cc1 [Example 889, tert-butyl [2-({N-[2-(4-methoxyphenyl)[1,2,4]triazolo[1,5-c]quinazolin-5-yl]-D-alanyl}amino)ethyl]methylcarbamate] | – | 3.9e-09 M | 4.45 nM
4 | COc1ccc(-c2nc3c4cccc(Br)c4nc(N[C@H](C)C(=O)NCCN4CCN(C(=O)OC(C)(C)C)CC4)n3n2)cc1 [Example 890, tert-butyl 4-[2-({N-[7-bromo-2-(4-methoxyphenyl)[1,2,4]triazolo[1,5-c]quinazolin-5-yl]-D-alanyl}amino)ethyl]piperazine-1-carboxylate] | – | 4.05e-09 M | 9.3 nM
5 | C[C@@H](Nc1nc2c(Br)cccc2c2nc(-c3cnn(C)c3)nn12)C(=O)NCCN1CCN(C(=O)OC(C)(C)C)CC1 [Example 891, tert-butyl 4-[2-({N-[7-bromo-2-(1-methyl-1H-pyrazol-4-yl)[1,2,4]triazolo[1,5-c]quinazolin-5-yl]-D-alanyl}amino)ethyl]piperazine-1-carboxylate] | – | 5.75e-08 M | 66.8 nM
6 | COC(=O)N1CCN(C(=O)[C@@H](C)Nc2nc3c(Br)cccc3c3nc(-c4cnn(C)c4)nn23)CC1 [Example 893, methyl 4-{N-[7-bromo-2-(1-methyl-1H-pyrazol-4-yl)[1,2,4]triazolo[1,5-c]quinazolin-5-yl]-D-alanyl}piperazine-1-carboxylate] | – | 2.65e-08 M | 18.2 nM
7 | COC(=O)N1CCN(C(=O)[C@@H](C)Nc2nc3c(Br)cccc3c3nc(-c4ccc(OC)cc4)nn23)CC1 [Example 894, methyl 4-{N-[7-bromo-2-(4-methoxyphenyl)[1,2,4]triazolo[1,5-c]quinazolin-5-yl]-D-alanyl}piperazine-1-carboxylate] | – | 2.01e-09 M | 1.33 nM
8 | COc1ccc(-c2nc3c4cccc(Br)c4nc(N[C@H](C)C(=O)NCCN4CCCCC4)n3n2)cc1 [Example 895, N^2-[7-bromo-2-(4-methoxyphenyl)[1,2,4]triazolo[1,5-c]quinazolin-5-yl]-N-[2-(piperidin-1-yl)ethyl]-D-alaninamide] | – | 1.18e-08 M | 17.3 nM
9 | C[C@@H](Nc1nc2c(Br)cccc2c2nc(-c3cnn(C)c3)nn12)C(=O)NCCN1CCCCC1 [Example 896, N^2-[7-bromo-2-(1-methyl-1H-pyrazol-4-yl)[1,2,4]triazolo[1,5-c]quinazolin-5-yl]-N-[2-(piperidin-1-yl)ethyl]-D-alaninamide] | – | 2.72e-07 M | 133 nM
10 | COc1ccc(-c2nc3c4ccccc4nc(N[C@H](C)C(=O)NCCN4CCCCC4)n3n2)cc1 [Example 897, N^2-[2-(4-methoxyphenyl)[1,2,4]triazolo[1,5-c]quinazolin-5-yl]-N-[2-(piperidin-1-yl)ethyl]-D-alaninamide] | – | 4.02e-08 M | 28.5 nM
11 | C[C@@H](Nc1nc2c(Br)cccc2c2nc(-c3cnn(C)c3)nn12)C(=O)N1C[C@H]2C[C@@H]1CO2 [Example 898, (2R)-2-{[7-bromo-2-(1-methyl-1H-pyrazol-4-yl)[1,2,4]triazolo[1,5-c]quinazolin-5-yl]amino}-1-[(1R,4R)-2-oxa-5-azabicyclo[2.2.1]heptan-5-yl]propan-1-one] | – | 1.2e-07 M | 25.2 nM
12 | COc1ccc(-c2nc3c4cccc(Br)c4nc(N[C@H](C)C(=O)N4C[C@H]5C[C@@H]4CO5)n3n2)cc1 [Example 899, (2R)-2-{[7-bromo-2-(4-methoxyphenyl)[1,2,4]triazolo[1,5-c]quinazolin-5-yl]amino}-1-[(1R,4R)-2-oxa-5-azabicyclo[2.2.1]heptan-5-yl]propan-1-one] | – | 1.12e-09 M | 0.885 nM
13 | C[C@@H](Nc1nc2c(Br)cccc2c2nc(-c3cnn(C)c3)nn12)C(=O)N1C[C@@H]2C[C@H]1CN2C [Example 900] | – | 4.4e-08 M | 72.3 nM
14 | COc1ccc(-c2nc3c4cccc(Br)c4nc(N[C@H](C)C(=O)N4C[C@@H]5C[C@H]4CN5C)n3n2)cc1 [Example 901, (2R)-2-{[7-bromo-2-(4-methoxyphenyl)[1,2,4]triazolo[1,5-c]quinazolin-5-yl]amino}-1-[(1S,4S)-5-methyl-2,5-diazabicyclo[2.2.1]heptan-2-yl]propan-1-one] | – | 2.88e-09 M | 4.79 nM
15 | C[C@@H](Nc1nc2c(Br)cccc2c2nc(-c3cnn(C)c3)nn12)C(=O)N1C[C@H]2C[C@@H]1CN2C [Example 902] | – | 8e-08 M | 95 nM
16 | COc1ccc(-c2nc3c4cccc(Br)c4nc(N[C@H](C)C(=O)N4C[C@H]5C[C@@H]4CN5C)n3n2)cc1 [Example 903, (2R)-2-{[7-bromo-2-(4-methoxyphenyl)[1,2,4]triazolo[1,5-c]quinazolin-5-yl]amino}-1-[(1R,4R)-5-methyl-2,5-diazabicyclo[2.2.1]heptan-2-yl]propan-1-one] | – | 4.09e-09 M | 6.59 nM
17 | C[C@@H]1CN(C(=O)[C@@H](C)Nc2nc3c(Br)cccc3c3nc(-c4cnn(C)c4)nn23)CCO1 [Example 906, (2R)-2-{[7-bromo-2-(1-methyl-1H-pyrazol-4-yl)[1,2,4]triazolo[1,5-c]quinazolin-5-yl]amino}-1-[(2R)-2-methylmorpholin-4-yl]propan-1-one] | – | 2.3e-08 M | 19.5 nM
18 | COc1ccc(-c2nc3c4cccc(Br)c4nc(N[C@H](C)C(=O)N4CCO[C@H](C)C4)n3n2)cc1 [Example 907, (2R)-2-{[7-bromo-2-(4-methoxyphenyl)[1,2,4]triazolo[1,5-c]quinazolin-5-yl]amino}-1-[(2R)-2-methylmorpholin-4-yl]propan-1-one] | – | 9.93e-10 M | 1.39 nM
19 | C[C@H]1CN(C(=O)[C@@H](C)Nc2nc3c(Br)cccc3c3nc(-c4cnn(C)c4)nn23)CCO1 [Example 908, (2R)-2-{[7-bromo-2-(1-methyl-1H-pyrazol-4-yl)[1,2,4]triazolo[1,5-c]quinazolin-5-yl]amino}-1-[(2S)-2-methylmorpholin-4-yl]propan-1-one] | – | 2.87e-08 M | 18.8 nM
